Results reported in US8415469B2, “Compounds and methods for kinase modulation, and indications therefor” (Plexxikon Inc., priority 2005, dated 2013).

Tests used:
Format in all cases: biochemical
MAP2K1 = target: T1, MAP2K1 (Homo sapiens, UniProt Q02750); assay: Z'-Lyte FRET kinase assay (Invitrogen), MAP2K1; settings: read-out: IC50, activity toward kinase MAP2K1
T1 construct: purchased Invitrogen (assay run by Invitrogen)

Kit = target: T2, Kit (Homo sapiens, UniProt P10721); assay: AlphaScreen kinase assay, Kit; settings: read-out: IC50, activity toward kinase Kit
T2 construct: P1332.N6 BI PTP KIT M552-K948-X COD; His6 (N); made in house; host or cells: E. coli (PTP1B co-expressed)

Yes = target: T3, Yes (Homo sapiens, UniProt P07947); assay: Z'-Lyte FRET kinase assay (Invitrogen), Yes; settings: read-out: IC50, activity toward kinase Yes
T3 construct: purchased Invitrogen (Carlsbad, Calif.), screening service
Procedure, shortened: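 Read-out is the coumarin-to-fluorescein emission ratio, which rises when unphosphorylated peptide is cleaved by the development protease. Reactions contain serially diluted compound, 2 μM peptide and 10 μM ATP and run for 1 h at room temperature before 1 h development.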

MAP4K4 = MAP4K4 (Homo sapiens, UniProt O95819); assay: AlphaScreen kinase assay, MAP4K4; settings: read-out: IC50, activity toward kinase MAP4K4
Description: AlphaScreen assays were done using compounds dissolved in DMSO to a concentration of 20 mM. The compounds were diluted accordingly to the desired final concentrations in each sample well, using 1:3 serial dilution for a total of 8 concentration points. Plates were prepared such that each kinase reaction is 20 μl in 1× kinase buffer, 5% DMSO and 10 μM ATP. After incubation of the kinase reaction for 1 hour at room temperature, 5 μl of donor beads in stop buffer (50 mM EDTA in 1× kinase buffer) was added, the sample was mixed and incubated for 20 minutes at room temperature before adding 5 μl of acceptor beads in stop buffer. The samples were incubated for 60 minutes at room temperature and the signal per well was read on AlphaQuest reader.

B-Raf V600E = target: T4, B-Raf V600E (Homo sapiens, UniProt P15056, V600E); assay: AlphaScreen kinase assay, B-Raf V600E; settings: read-out: IC50, activity toward kinase B-Raf V600E
T4 construct: P4254. pFastBacBD-CDC37 BRAF D437-K722-X, V600E; His6 with pFastBac HT leader (TEV site) (N); made in house; host or cells: Sf9 (baculovirus; chaperone CDC37 co-expressed)

Src = target: T5, Src (Homo sapiens, UniProt P12931); assay: AlphaScreen kinase assay, Src; settings: read-out: IC50, activity toward kinase Src
T5 construct: P1144. pET-N6 BI-PTP SRC V86-L536-X; made in house

Ret = target: T6, Ret (Homo sapiens, UniProt P07949); assay: AlphaScreen kinase assay, Ret; settings: read-out: IC50, activity toward kinase Ret
T6 construct: P1378.pET-SF BI-PTP RET H661-R1012 HIS; made in house
T6 sequence (P07949 with tags, fused parts or gaps): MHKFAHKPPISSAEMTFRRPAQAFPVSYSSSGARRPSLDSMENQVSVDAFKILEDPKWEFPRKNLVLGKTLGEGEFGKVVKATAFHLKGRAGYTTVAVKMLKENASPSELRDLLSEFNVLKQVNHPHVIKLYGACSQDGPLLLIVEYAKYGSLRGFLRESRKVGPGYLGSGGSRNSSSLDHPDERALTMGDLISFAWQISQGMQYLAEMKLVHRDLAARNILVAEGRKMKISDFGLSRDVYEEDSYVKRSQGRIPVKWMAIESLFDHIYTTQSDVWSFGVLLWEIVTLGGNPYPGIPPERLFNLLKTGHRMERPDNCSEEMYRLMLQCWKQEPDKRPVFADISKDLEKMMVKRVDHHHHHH

Fms = target: T7, Fms (Homo sapiens, UniProt P07333); assay: AlphaScreen kinase assay, Fms; settings: read-out: IC50, activity toward kinase Fms
T7 construct: purchased Upstate Biotechnology

FGFR1 = target: T8, FGFR1 (Homo sapiens, UniProt P11362, C488A/C584S); assay: AlphaScreen kinase assay, FGFR1; settings: read-out: IC50, activity toward kinase FGFR
T8 construct: P1351.pET N6 BI-PTP FGFR A458-E765-X C488A, C584S; made in house; host or cells: E. coli (PTP1B co-expressed)

Btk = target: T9, Btk (Homo sapiens, UniProt Q06187); assay: Z'-Lyte FRET kinase assay (Invitrogen), Btk; settings: read-out: IC50, activity toward kinase Btk
T9 construct: purchased Invitrogen (assay run by Invitrogen)

Kdr = target: T10, Kdr (Homo sapiens, UniProt P35968); assay: Z'-Lyte FRET kinase assay (Invitrogen), Kdr; settings: read-out: IC50, activity toward kinase Kdr
T10 construct: purchased Invitrogen (assay run by Invitrogen)

Flt4 = target: T11, Flt4 (Homo sapiens, UniProt P35916); assay: AlphaScreen kinase assay, Flt4; settings: read-out: IC50, activity toward kinase Flt4
T11 construct: purchased ProQinase GmbH (Freiburg, Germany)
Description: AlphaScreen assay was used to screen additional kinases. The assay is similarly dependent on the phosphorylation of a peptide substrate. In this assay, an antibody that recognizes phosphorylated substrate is bound to an acceptor bead. The peptide substrate is attached to biotin, which binds to a donor head that contains streptavidin. Thus phosphorylated substrate is bound by antibody and streptavidin, bringing the donor and acceptor heads into close proximity when kinase is not inhibited. The donor produces singlet oxygen which results in emission from the acceptor when they are in close proximity. Conversely, when kinase is inhibited, the donor and acceptor beads are not associated and the emission from the acceptor is reduced.
AlphaScreen assays were done using compounds dissolved in DMSO to a concentration of 20 mM. The compounds were diluted accordingly to the desired final concentrations in each sample well, using 1:3 serial dilution for a total of 8 concentration points.

Jnk3 = target: T12, Jnk3 (Homo sapiens, UniProt P53779); assay: AlphaScreen kinase assay, Jnk3; settings: read-out: IC50, activity toward kinase Jnk3
T12 construct: purchased Upstate Biotechnology

Stk6 = target: T13, Stk6 (Homo sapiens, UniProt O14965); assay: Z'-Lyte FRET kinase assay (Invitrogen), Stk6; settings: read-out: IC50, activity toward kinase Stk6
T13 construct: purchased Invitrogen (Carlsbad, Calif.), screening service
T13 sequence (O14965 1-403): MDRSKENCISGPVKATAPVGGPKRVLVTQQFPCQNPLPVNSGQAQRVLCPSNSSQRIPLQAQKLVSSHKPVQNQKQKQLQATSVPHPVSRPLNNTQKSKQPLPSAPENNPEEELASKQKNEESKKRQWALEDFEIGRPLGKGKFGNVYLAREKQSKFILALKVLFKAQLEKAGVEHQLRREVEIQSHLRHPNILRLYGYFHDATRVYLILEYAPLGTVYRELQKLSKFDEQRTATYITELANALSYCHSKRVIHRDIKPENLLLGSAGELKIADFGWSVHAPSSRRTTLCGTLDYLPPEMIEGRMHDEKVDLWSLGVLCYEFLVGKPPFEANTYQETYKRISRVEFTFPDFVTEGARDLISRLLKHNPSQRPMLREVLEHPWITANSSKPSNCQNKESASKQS

Met = target: T14, Met (Homo sapiens, UniProt P08581); assay: AlphaScreen kinase assay, Met; settings: read-out: IC50, activity toward kinase Met
T14 construct: P1818.pETN6 BI-PTP MET G1056-G1364-X WT; His6 (N); made in house; host or cells: E. coli (PTP1B co-expressed)
Procedure, shortened: (§1)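 Uses phospho-specific antibody on acceptor beads plus streptavidin donor beads capturing biotinylated peptide substrate; singlet oxygen from donor excites nearby acceptor. Inhibitors tested in 8-point, 1:3 titrations starting from 20 mM DMSO solutions.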

Flt1 = target: T15, Flt1 (Homo sapiens, UniProt P17948); assay: AlphaScreen kinase assay, Flt1; settings: read-out: IC50, activity toward kinase Flt1
T15 construct: P1826.pETN6 BI-PTP FLT1 M799-D1165-X WT; His6 (N); made in house; host or cells: E. coli (PTP1B co-expressed)
T15 sequence (P17948 with tags, fused parts or gaps): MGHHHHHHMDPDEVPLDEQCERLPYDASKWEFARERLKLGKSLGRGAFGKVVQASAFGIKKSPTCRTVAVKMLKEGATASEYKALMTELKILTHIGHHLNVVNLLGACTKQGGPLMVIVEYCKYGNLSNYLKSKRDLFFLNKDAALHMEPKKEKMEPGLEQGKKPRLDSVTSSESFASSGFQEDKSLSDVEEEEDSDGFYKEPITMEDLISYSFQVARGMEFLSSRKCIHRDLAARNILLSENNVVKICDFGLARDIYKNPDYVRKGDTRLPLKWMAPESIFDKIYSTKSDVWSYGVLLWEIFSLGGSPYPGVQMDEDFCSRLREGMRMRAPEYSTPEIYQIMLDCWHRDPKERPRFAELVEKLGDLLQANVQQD

Jnk2 = target: T16, Jnk2 (Homo sapiens, UniProt P45984); assay: AlphaScreen kinase assay, Jnk2; settings: read-out: IC50, activity toward kinase Jnk2
T16 construct: purchased Roche Protein Expression Group (Indianapolis, IN)
Procedure, shortened: as §1

Abl = target: T17, Abl (Homo sapiens, UniProt P00519); assay: AlphaScreen kinase assay, Abl; settings: read-out: activity toward kinase Abl, IC50
T17 construct: P1121. pET-SPEC BI-PTP Abl G227-V515-X; His6 (N); made in house; host or cells: E. coli (PTP1B co-expressed)
T17 sequence (P00519 with tags, fused parts or gaps): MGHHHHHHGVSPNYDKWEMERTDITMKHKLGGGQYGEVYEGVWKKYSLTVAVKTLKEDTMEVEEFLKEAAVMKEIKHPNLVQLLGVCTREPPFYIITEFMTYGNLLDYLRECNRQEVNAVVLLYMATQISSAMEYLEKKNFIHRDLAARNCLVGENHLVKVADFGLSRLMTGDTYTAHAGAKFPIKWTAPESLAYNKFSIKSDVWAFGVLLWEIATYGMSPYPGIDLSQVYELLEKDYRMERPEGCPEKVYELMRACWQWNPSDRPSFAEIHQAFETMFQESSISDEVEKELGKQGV
Procedure, shortened: as §1

Pyk2 = target: T18, Pyk2 (Homo sapiens, UniProt Q14289); assay: AlphaScreen kinase assay, Pyk2; settings: read-out: IC50, activity toward kinase Pyk2
T18 construct: purchased Upstate Biotechnology

c-Raf-1 = target: T19, c-Raf-1 (Homo sapiens, UniProt P04049); assay: AlphaScreen kinase assay, c-Raf-1; settings: read-out: IC50, activity toward kinase c-Raf-1
T19 construct: purchased Upstate Biotechnology

Jnk1 = target: T20, Jnk1 (Homo sapiens, UniProt P45983); assay: AlphaScreen kinase assay, Jnk1; settings: read-out: IC50, activity toward kinase Jnk1
T20 construct: purchased Upstate Biotechnology

Zap70 = target: T21, Zap70 (Homo sapiens, UniProt P43403); assay: AlphaScreen kinase assay, Zap70; settings: read-out: IC50, activity toward kinase Zap70
T21 construct: P1868.pFastBac1 ZAP70 D327-G606 HIS, WT; His7 (HHHHHHH) (C); made in house
T21 sequence (P43403 with tags, fused parts or gaps): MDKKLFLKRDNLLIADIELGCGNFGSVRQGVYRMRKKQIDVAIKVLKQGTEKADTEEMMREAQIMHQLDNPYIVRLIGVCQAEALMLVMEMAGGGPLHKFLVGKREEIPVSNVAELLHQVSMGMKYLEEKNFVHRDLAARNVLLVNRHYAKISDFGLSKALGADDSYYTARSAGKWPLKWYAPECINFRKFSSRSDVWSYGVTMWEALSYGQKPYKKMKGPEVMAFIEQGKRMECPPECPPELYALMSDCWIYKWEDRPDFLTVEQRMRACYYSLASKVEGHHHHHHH
Procedure, shortened: as §1

Measured: IC50

T2 sequence (P10721 with tags, fused parts or gaps): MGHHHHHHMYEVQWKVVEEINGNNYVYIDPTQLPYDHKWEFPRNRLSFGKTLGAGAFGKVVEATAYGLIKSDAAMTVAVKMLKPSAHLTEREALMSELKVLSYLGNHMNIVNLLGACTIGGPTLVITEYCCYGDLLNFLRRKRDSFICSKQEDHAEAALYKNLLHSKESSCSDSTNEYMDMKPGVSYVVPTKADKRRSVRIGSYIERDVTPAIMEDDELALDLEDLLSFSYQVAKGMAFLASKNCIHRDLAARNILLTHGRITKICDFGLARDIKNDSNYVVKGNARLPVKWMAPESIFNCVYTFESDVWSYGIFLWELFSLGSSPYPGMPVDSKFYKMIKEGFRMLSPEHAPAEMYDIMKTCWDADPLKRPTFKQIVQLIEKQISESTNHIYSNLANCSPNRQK
T4 sequence (P15056 with tags, fused parts or gaps V600E): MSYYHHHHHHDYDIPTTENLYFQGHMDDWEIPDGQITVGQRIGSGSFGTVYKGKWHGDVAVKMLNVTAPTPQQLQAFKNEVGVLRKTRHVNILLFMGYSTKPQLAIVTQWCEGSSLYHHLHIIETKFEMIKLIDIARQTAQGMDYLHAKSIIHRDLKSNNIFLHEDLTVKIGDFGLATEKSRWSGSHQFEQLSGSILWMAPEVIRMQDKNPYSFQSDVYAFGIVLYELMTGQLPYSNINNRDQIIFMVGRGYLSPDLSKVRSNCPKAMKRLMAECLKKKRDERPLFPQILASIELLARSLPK
T10 sequence (P35968 20-1356): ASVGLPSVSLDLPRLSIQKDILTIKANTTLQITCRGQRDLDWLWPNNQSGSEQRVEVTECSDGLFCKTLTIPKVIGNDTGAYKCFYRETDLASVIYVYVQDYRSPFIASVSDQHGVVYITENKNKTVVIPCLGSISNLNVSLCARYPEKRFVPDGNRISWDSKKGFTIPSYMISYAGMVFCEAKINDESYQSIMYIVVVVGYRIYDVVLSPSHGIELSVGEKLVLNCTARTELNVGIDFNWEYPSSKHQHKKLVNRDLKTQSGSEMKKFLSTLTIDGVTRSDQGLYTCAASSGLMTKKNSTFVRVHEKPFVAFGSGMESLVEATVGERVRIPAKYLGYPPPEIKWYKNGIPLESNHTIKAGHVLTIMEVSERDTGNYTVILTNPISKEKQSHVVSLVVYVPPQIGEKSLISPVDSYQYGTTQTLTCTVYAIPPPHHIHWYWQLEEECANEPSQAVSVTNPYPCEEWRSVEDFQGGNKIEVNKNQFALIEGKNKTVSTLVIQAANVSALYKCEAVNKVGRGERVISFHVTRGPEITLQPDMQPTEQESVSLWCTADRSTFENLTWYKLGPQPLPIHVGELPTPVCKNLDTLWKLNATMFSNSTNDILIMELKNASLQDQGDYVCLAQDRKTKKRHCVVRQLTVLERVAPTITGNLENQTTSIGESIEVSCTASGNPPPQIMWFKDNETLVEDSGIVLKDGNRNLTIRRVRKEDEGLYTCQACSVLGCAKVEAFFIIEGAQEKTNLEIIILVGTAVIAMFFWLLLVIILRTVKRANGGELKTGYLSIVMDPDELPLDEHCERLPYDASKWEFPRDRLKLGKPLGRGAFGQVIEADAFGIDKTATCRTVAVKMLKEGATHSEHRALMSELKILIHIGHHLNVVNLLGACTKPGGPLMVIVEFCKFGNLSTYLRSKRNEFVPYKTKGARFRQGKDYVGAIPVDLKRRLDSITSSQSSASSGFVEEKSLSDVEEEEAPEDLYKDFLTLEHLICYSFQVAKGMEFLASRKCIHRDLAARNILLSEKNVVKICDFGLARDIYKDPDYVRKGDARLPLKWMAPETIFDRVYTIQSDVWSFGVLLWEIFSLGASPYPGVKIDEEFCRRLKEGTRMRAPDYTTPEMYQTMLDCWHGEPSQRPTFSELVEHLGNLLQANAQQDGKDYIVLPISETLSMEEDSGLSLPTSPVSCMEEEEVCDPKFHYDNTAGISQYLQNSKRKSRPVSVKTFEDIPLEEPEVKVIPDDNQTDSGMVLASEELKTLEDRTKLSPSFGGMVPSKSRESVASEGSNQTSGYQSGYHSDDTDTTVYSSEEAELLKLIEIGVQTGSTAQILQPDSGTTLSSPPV
T1 sequence (Q02750 whole entry): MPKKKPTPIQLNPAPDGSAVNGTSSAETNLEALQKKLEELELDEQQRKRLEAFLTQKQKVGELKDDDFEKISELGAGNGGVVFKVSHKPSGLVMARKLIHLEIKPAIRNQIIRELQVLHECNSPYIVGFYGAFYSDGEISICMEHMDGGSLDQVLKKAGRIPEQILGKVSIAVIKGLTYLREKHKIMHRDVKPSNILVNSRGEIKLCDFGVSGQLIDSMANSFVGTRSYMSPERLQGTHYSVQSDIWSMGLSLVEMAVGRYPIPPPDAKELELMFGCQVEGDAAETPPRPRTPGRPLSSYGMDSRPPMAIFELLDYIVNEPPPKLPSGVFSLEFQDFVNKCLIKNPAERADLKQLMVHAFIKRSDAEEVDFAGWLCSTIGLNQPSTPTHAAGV
T7 sequence (P07333 20-972): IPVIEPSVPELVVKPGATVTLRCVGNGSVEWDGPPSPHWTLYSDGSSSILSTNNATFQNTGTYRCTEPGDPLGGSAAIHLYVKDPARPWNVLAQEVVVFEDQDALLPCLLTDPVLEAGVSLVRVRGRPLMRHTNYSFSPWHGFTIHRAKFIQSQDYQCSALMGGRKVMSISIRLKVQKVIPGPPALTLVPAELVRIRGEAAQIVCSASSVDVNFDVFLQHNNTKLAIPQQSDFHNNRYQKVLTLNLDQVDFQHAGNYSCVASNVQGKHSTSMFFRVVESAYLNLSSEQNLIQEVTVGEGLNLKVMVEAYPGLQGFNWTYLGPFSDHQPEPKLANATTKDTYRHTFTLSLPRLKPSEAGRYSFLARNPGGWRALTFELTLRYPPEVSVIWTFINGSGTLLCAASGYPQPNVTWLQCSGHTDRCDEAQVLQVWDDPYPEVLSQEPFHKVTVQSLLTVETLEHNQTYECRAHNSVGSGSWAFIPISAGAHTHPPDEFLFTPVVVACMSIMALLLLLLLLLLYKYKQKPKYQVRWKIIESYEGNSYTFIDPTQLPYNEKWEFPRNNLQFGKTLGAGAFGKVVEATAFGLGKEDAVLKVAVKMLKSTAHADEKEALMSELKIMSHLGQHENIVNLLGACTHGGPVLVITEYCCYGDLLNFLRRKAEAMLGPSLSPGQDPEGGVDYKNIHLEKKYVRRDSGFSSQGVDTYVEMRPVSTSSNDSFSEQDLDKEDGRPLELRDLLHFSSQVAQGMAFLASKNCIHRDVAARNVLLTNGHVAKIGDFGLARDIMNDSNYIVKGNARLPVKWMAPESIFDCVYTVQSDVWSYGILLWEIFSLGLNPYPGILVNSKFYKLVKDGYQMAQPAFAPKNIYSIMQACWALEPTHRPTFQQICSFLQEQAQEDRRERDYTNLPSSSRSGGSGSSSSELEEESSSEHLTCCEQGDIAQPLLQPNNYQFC
T8 sequence (P11362 458-765 C488A/C584S): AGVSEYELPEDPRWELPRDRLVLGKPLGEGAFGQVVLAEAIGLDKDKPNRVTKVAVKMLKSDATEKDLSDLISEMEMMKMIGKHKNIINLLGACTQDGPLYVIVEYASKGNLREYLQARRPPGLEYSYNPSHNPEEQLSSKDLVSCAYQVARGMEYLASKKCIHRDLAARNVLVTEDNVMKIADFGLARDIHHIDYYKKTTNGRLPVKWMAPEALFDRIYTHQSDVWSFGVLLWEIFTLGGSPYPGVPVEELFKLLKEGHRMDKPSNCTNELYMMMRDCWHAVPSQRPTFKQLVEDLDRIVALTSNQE
T11 sequence (P35916 25-1363): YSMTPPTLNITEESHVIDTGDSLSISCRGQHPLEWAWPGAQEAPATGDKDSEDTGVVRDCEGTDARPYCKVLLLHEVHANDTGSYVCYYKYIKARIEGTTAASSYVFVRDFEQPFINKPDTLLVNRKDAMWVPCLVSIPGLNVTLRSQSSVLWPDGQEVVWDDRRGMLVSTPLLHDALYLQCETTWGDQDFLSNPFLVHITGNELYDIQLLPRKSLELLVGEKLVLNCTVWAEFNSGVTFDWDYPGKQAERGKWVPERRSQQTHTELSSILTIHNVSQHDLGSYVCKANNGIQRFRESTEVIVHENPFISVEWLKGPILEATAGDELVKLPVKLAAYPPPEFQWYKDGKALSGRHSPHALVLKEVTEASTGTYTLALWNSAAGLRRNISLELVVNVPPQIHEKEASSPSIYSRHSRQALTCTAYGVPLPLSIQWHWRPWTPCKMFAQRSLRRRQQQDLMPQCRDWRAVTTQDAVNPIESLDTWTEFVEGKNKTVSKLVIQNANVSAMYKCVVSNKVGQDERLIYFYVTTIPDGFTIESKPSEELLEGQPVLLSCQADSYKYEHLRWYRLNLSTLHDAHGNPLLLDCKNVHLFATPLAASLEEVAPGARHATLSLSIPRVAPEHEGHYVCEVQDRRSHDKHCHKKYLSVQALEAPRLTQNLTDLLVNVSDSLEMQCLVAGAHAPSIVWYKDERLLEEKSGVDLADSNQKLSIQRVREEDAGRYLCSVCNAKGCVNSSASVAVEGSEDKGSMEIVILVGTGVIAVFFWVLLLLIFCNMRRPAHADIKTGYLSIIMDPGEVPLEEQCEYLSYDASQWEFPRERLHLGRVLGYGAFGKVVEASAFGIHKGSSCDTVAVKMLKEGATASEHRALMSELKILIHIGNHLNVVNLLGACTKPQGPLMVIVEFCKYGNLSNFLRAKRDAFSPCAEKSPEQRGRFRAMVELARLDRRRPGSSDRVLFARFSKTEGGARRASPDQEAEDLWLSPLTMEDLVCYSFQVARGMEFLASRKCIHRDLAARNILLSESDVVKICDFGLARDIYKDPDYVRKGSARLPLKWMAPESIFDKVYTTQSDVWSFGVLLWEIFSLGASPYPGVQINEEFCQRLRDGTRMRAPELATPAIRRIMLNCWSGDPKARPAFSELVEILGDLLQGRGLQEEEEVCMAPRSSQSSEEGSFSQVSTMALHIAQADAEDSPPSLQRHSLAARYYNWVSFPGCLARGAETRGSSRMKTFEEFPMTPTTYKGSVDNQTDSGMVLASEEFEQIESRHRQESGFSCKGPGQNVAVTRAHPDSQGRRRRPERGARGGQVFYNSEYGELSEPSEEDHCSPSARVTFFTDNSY

COc1ccc(C(=O)c2c[nH]c3ncccc23)c(Cl)c1 [Compound P-0152]
≤ 10 µM: MAP2K1 | Kit | Yes | MAP4K4 | B-Raf V600E | Src | Ret | Fms | FGFR1 | Btk | Kdr

Cc1cc(C(=O)c2c[nH]c3ncc(-c4cccc(N)c4)cc23)nn1C [Compound P-0117]
≤ 10 µM: Kit | Flt4 | Jnk3 | Stk6 | Ret | Met | Kdr

c1cncc(-c2c[nH]c3ncccc23)c1 [Compound P-0023]
≤ 10 µM: MAP2K1 | Stk6 | Kdr

COc1ccc(F)c(C(=O)c2c[nH]c3ncc(-c4cccc(NC(C)=O)c4)cc23)c1 [Compound P-0325]
≤ 10 µM: Flt1 | Kit | Flt4 | B-Raf V600E | Ret | Met | Fms | FGFR1 | Btk

O=C(CCc1c[nH]c2ncccc12)NCc1ccccc1 [Compound P-0331]
≤ 10 µM: MAP2K1

S=C(NCc1c[nH]c2ncccc12)Nc1cccc(Cl)c1 [Compound P-0337]
≤ 10 µM: Flt1 | MAP2K1 | Kdr

COc1cccc(Cc2c[nH]c3ncc(-c4cccs4)cc23)c1 [Compound P-0142]
≤ 10 µM: Jnk2 | Kit | Flt4 | Abl | Ret | Pyk2 | FGFR1 | Kdr

O=C1NCc2ccccc2N1Cc1c[nH]c2ncccc12 [Compound P-0194]
≤ 10 µM: Flt1 | MAP2K1 | Kdr

CS(=O)(=O)Nc1ccc(F)c(C(=O)c2c[nH]c3ncc(Br)cc23)c1 [Compound P-0170, N-[3-(5-Bromo-1H-pyrrolo[2,3-b]pyridine-3-carbonyl)-4-fluoro-phenyl]-methanesulfonamide]
≤ 10 µM: MAP2K1 | B-Raf V600E | Fms | FGFR1 | c-Raf-1 | Kdr

O=C(c1ccccc1F)c1c[nH]c2ncccc12 [Compound P-0158]
≤ 10 µM: MAP2K1 | Ret | FGFR1 | Kdr

Nc1cccc(-c2cnc3[nH]cc(C(=O)c4ccccc4F)c3c2)c1 [Compound P-0624]
≤ 10 µM: Flt1 | Jnk1 | Kit | Flt4 | Jnk3 | B-Raf V600E | Abl | Src | Ret | FGFR1 | Zap70 | Kdr

CS(=O)(=O)Nc1cccc(C(=O)c2c[nH]c3ncccc23)c1 [Compound P-0198]
≤ 10 µM: MAP2K1 | MAP4K4 | FGFR1 | Kdr

O=C(NCc1cccc(Cl)c1)NCc1c[nH]c2ncccc12 [Compound P-0568]
≤ 10 µM: MAP2K1
